Data on 31 compounds can be found in patent US10112940B2, “Histone demethylase inhibitors” (Celgene Quanticel Research, Inc., priority 2014, dated 2018).

Bounds are passed on as bounds.

One test addresses JMJD2C (Homo sapiens (Human), UniProt Q9H3R0). The test can be described thus: JMJD2C in vitro enzyme inhibition assay (TR-FRET). Conditions: 0.3 nM JMJD2C, 300 nM H3K9me3-biotin peptide, 2 μM alpha-ketoglutaric acid, 30 minutes. The format is biochemical. On the procedure:
This assay determines the ability of a test compound to inhibit JMJD2C demethylase activity. Baculovirus expressed JMJD2C (GenBank Accession #BC143571, AA 2-372) was purchased from BPS Bioscience (Cat#50105).
The ability of test compounds to inhibit the activity of JMJD2C was determined in 384-well plate format under the following reaction conditions: 0.3 nM JMJD2C, 300 nM H3K9me3-biotin labeled peptide (Anaspec cat #64360), 2 μM alpha-ketoglutaric acid in assay buffer of 50 mM HEPES, pH7.3, 0.005% Brij35, 0.5 mM TCEP, 0.2 mg/ml BSA, 50 μM sodium L-ascorbate, and 2 μM ammonium iron(II) sulfate. Reaction product was determined quantitatively by TR-FRET after the addition of detection reagent Phycolink Streptavidin-allophycocyanin (Prozyme) and Europium-anti-di-methylated histone H3 lysine 9 (H3K9me2) antibody (PerkinElmer) in the presence of 5 mM EDTA in LANCE detection buffer (PerkinElmer) at a final concentration of 50 nM and 1 nM, respectively.
The assay reaction was initiated by the following: 2 μl of the mixture of 900 nM H3K9me3-biotin labeled peptide and 6 μM alpha-ketoglutaric acid with 2 μl of 11-point serial diluted inhibitor in 3% DMSO were added to each well of the plate, followed by the addition of 2 μl of 0.9 nM JMJD2C to initiate the reaction. The reaction mixture was incubated at room temperature for 30 minutes, and terminated by the addition of 6 μl of 5 mM EDTA in LANCE detection buffer containing 100 nM Phycolink Streptavidin-allophycocyanin and 2 nM Europium-anti-H3K9me2 antibody. Plates were read by EnVisionMultilabel Reader in TR-FRET mode (excitation at 320 nm, emission at 615 nm and 665 nm) after 1 hour incubation at room temperature. A ratio was calculated (665/615) for each well and fitted to determine inhibition constant (IC50).
The ability of the compounds disclosed herein to inhibit demethylase activity was quantified and the respective IC50 value was determined. Table 3 provides the IC50 values of various compounds disclosed herein.

In test [1] the test system is KYSE-150 esophageal carcinoma cell line. The test can be described thus: In vitro cell-based assay: BrdU incorporation cell proliferation ELISA. Set-up: species or system human. Conditions: Homo sapiens, KYSE-150 cells, 168 hours compound incubation, read-out: Cellular IC50. On the procedure: Cell lines tested include the JMJD2C gene amplified cell line KYSE-150. This is a quantitative ELISA assay measuring DNA incorporation of BrdU during S-phase as a direct readout of cellular proliferation.
Assay Principle: This is a colorimetric immunoassay for the quantification of cell proliferation. Cells treated for 168 hours with test compounds are assayed for their ability to go through S-phase as a measure of their proliferative potential.
Assay Method: The human KYSE-150 (SMAD4 mut, TP53 mut) esophageal carcinoma cell line was seeded at 2,000 cells/well on a 96-well tissue culture treated plate. After an overnight incubation, cells were treated with compound in an 11-point dilution series with final concentrations ranging from 100 μM to 2 nM. Cells were then incubated in the presence of compound for 168 hours. After compound incubation the cells were assayed using a BrdU Cell Proliferation ELISA (Roche). The cells were first incubated with BrdU labeling reagent for 2 hours. After 2 hours, the BrdU incorporated cells were fixed and denatured, probed with an anti-BrdU-Peroxidase antibody for 1.5 hours and washed. Finally, a tetramethylbenzidine peroxidase substrate was added to each well for 15 minutes followed by a H2SO4 stop solution. The plate was read at 450 nm, and the raw optical density data was transferred into XLFit (IDBS) for IC50 calculation using the formula: fit=(D+((Vmax*(x^n))/((x^n)+(Km^n))))
Table 4 provides the cellular IC50 values of various compounds disclosed herein.

Sequence of JMJD2C (Q9H3R0 2-372): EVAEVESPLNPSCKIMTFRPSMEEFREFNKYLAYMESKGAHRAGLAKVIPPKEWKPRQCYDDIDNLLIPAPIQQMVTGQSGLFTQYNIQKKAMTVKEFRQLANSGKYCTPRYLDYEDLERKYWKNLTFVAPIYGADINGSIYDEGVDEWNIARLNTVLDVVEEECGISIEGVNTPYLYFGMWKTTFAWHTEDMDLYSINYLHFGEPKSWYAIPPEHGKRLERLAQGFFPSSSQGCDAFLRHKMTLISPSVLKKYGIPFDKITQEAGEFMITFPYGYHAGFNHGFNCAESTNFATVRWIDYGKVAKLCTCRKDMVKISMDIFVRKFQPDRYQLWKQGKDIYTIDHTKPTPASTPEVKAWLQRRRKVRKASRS

For the compound `CN(c1ccc(Oc2nc(O)c3ccncc3n2)cc1)c1ccccn1` [Example 1, 2-[4-(Methyl-pyridin-2-yl-amino)-phenoxy]-pyrido[3,4-d]pyrimidin-4-ol], the IC50 fell in the range of 100 to 1000 nM on JMJD2C and 1000 to 10000 nM in test [1].

With `Cn1ccc2cc(Oc3nc(O)c4ccncc4n3)ccc21` [Example 2, 2-(1-Methyl-1H-indol-5-yloxy)-pyrido[3,4-d]pyrimidin-4-ol], the half-maximal inhibitory concentration (IC50) against JMJD2C was 100 to 1000 nM; in test [1], no more than 100 nM.

Consider `Oc1nc(Oc2ccc3c(ccn3CCc3ccccc3)c2)nc2cnccc12` [Example 3, 2-(1-Phenethyl-1H-indol-5-yloxy)-pyrido[3,4-d]pyrimidin-4-ol], for which the IC50 (at JMJD2C; in test [1]) was 100 to 1000 nM each time.

As to `Oc1nc(Oc2ccc3c(ccn3Cc3ccccc3)c2)nc2cnccc12` [Example 4, 2-(1-Benzyl-1H-indol-5-yloxy)-pyrido[3,4-d]pyrimidin-4-ol], the IC50 (against JMJD2C; in test [1]) was 100 to 1000 nM throughout.

Regarding `CN(c1ccccc1)c1ccc(Oc2nc(O)c3ccncc3n2)cc1` [Example 5, 2-[4-(Methyl-phenyl-amino)-phenoxy]-pyrido[3,4-d]pyrimidin-4-ol], the IC50 (at JMJD2C; in test [1]) was 100 to 1000 nM in each case.

Regarding `CN(Cc1ccccc1)c1ccc(Oc2nc(O)c3ccncc3n2)cc1` [Example 6, 2-[4-(Benzyl-methyl-amino)-phenoxy]-pyrido[3,4-d]pyrimidin-4-ol], the IC50 is 100 to 1000 nM against JMJD2C and no more than 100 nM in test [1].

In the case of `CN(c1ccccc1)c1cccc(Oc2nc(O)c3ccncc3n2)c1` [Example 7, 2-[3-(Methyl-phenyl-amino)-phenoxy]-pyrido[3,4-d]pyrimidin-4-ol], the IC50 (at JMJD2C; in test [1]) was 1000 to 10000 nM throughout.

On to `Oc1nc(Oc2ccc3ccn(Cc4ccccc4)c3c2)nc2cnccc12` [Example 8, 2-(1-Benzyl-1H-indol-6-yloxy)-pyrido[3,4-d]pyrimidin-4-ol], for which, on JMJD2C, the IC50 is 1000 to 10000 nM.

The compound `CN(Cc1ccccc1)c1cccc(Oc2nc(O)c3ccncc3n2)c1` [Example 9, 2-[3-(Benzyl-methyl-amino)-phenoxy]-pyrido[3,4-d]pyrimidin-4-ol] showed an IC50 against JMJD2C of 1000 to 10000 nM.

The compound `CN(c1ccccc1)c1ccc(Oc2nc(O)c3ccncc3n2)cc1F` [Example 10, 2-[3-Fluoro-4-(methyl-phenyl-amino)-phenoxy]-pyrido[3,4-d]pyrimidin-4-ol] displayed an IC50 at JMJD2C of 100 to 1000 nM.

On JMJD2C, `Oc1nc(Oc2ccc3cnn(Cc4ccccc4)c3c2)nc2cnccc12` [Example 11, 2-(1-Benzyl-1H-indazol-6-yloxy)-pyrido[3,4-d]pyrimidin-4-ol] yielded an IC50 of 100 to 1000 nM.

Regarding `Oc1nc(Oc2ccc3cn(Cc4ccccc4)nc3c2)nc2cnccc12` [Example 12, 2-(2-Benzyl-2H-indazol-6-yloxy)-pyrido[3,4-d]pyrimidin-4-ol], the 50% inhibitory concentration (IC50) was 100 to 1000 nM against JMJD2C and 1000 to 10000 nM in test [1].

With `CN(CCc1ccccc1)c1ccc(Oc2nc(O)c3ccncc3n2)cc1` [Example 13, 2-{4-[Methyl(2-phenylethyl)amino]phenoxy}pyridino[3,4-d]pyrimidin-4-ol], the IC50 lay in the range of 100 to 1000 nM against JMJD2C and 1000 to 10000 nM in test [1].

The compound `Oc1nc(Oc2ccc3nn(Cc4ccccc4)cc3c2)nc2cnccc12` [Example 14, 2-[2-Benzyl-2H-indazol-5-yloxy]pyridino[3,4-d]pyrimidin-4-ol] returned an IC50 on JMJD2C of 100 to 1000 nM.

Consider `Oc1nc(Oc2ccc3c(cnn3Cc3ccccc3)c2)nc2cnccc12` [Example 15, 2-(1-Benzyl-1H-indazol-5-yloxy)-pyridino[3,4-d]pyrimidin-4-ol], for which the results for the IC50 (at JMJD2C; in test [1]) were 100 to 1000 nM and 1000 to 10000 nM, respectively.

At JMJD2C, `COc1ccc(N(C)c2ccc(Oc3nc(O)c4ccncc4n3)cc2)cc1` [Example 16, 2-{4-[(4-Methoxy-phenyl)-methyl-amino]-phenoxy}-pyrido[3,4-d]pyrimidin-4-ol] registered a concentration for half-maximal inhibition (IC50) of 100 to 1000 nM.

As for `COc1cccc(N(C)c2ccc(Oc3nc(O)c4ccncc4n3)cc2)c1` [Example 17, 2-{4-[(3-Methoxy-phenyl)-methyl-amino]-phenoxy}-pyrido[3,4-d]pyrimidin-4-ol], the concentration for half-maximal inhibition (IC50) on JMJD2C lay in the range of 100 to 1000 nM.

Regarding `CN(c1ccc(Oc2nc(O)c3ccncc3n2)cc1)c1ccc(N2CCOCC2)cc1` [Example 18, 2-{4-[Methyl-(4-morpholin-4-yl-phenyl)-amino]-phenoxy}-pyrido[3,4-d]pyrimidin-4-ol], at JMJD2C, the IC50 was 100 to 1000 nM.

On to `CN(c1ccc(Oc2nc(O)c3ccncc3n2)cc1)c1cccc(N2CCOCC2)c1` [Example 19, 2-{4-[Methyl-(3-morpholin-4-yl-phenyl)-amino]-phenoxy}-pyrido[3,4-d]pyrimidin-4-ol], for which the IC50 (against JMJD2C; in test [1]) was 100 to 1000 nM in each case.

Regarding `Cc1ccc(N(C)c2ccc(Oc3nc(O)c4ccncc4n3)cc2)cc1` [Example 20, 2-[4-(Methyl-p-tolyl-amino)-phenoxy]-pyrido[3,4-d]pyrimidin-4-ol], on JMJD2C, the half-inhibitory concentration (IC50) fell in the range of 100 to 1000 nM.

The compound `Cc1cccc(N(C)c2ccc(Oc3nc(O)c4ccncc4n3)cc2)c1` [Example 21, 2-[4-(Methyl-m-tolyl-amino)-phenoxy]-pyrido[3,4-d]pyrimidin-4-ol] displayed an IC50 against JMJD2C of 100 to 1000 nM.

`Oc1nc(Oc2ccc(N3CCCC(c4ccccc4)C3)cc2)nc2cnccc12` (stereo not drawn) [Example 25, 2-[4-(3-phenyl-piperidin-1-yl)-phenoxy]-pyrido[3,4-d]pyrimidin-4-ol]: on JMJD2C, the IC50 lay within 100 to 1000 nM.

As for `CN(CC1CCCc2ccccc21)c1ccc(Oc2nc(O)c3ccncc3n2)cc1` (stereo not drawn) [Example 28, 2-{4-[methyl-(1,2,3,4-tetrahydro-naphthalen-1-ylmethyl)-amino]-phenoxy}-pyrido[3,4-d]pyrimidin-4-ol], the 50% inhibitory concentration (IC50) against JMJD2C is no more than 100 nM.

Turning to `Oc1nc(Oc2ccc3c(ccn3C3CCCC3)c2)nc2cnccc12` [Example 31, 2-(1-cyclopentyl-1H-indol-5-yloxy)-pyrido[3,4-d]pyrimidin-4-ol], the IC50 at JMJD2C fell in the range of 1000 to 10000 nM.

As for `Oc1nc(Oc2ccc3c(c2)CCCN3c2ccccc2)nc2cnccc12` [Example 33, 2-(1-phenyl-1,2,3,4-tetrahydro-quinolin-6-yloxy)-pyrido[3,4-d]pyrimidin-4-ol], on JMJD2C, the half-maximal inhibitory concentration (IC50) was 1000 to 10000 nM.

Compound `CC(C)c1ccc(N(C)c2ccc(Oc3nc(O)c4ccncc4n3)cc2)nc1` [Example 34, 2-{4-[(5-isopropyl-pyridin-2-yl)-methyl-amino]-phenoxy}-pyrido[3,4-d]pyrimidin-4-ol] showed a 50% inhibitory concentration (IC50) against JMJD2C of no more than 100 nM.

On JMJD2C, `CC(C)c1ccc(N(C)c2ccc(Oc3nc(O)c4ccncc4n3)cc2)cc1N1CCOCC1` [Example 35, 2-{4-[(4-isopropyl-3-morpholin-4-yl-phenyl)-methyl-amino]-phenoxy}-pyrido[3,4-d]pyrimidin-4-ol] returned an IC50 of 100 to 1000 nM.

Compound `CC(C)Cc1ccc(N(C)c2ccc(Oc3nc(O)c4ccncc4n3)cc2)cc1` [Example 63, 2-[4-[N-methyl-4-(2-methylpropyl)anilino]phenoxy]pyrido[3,4-d]pyrimidin-4-ol] showed an IC50 against JMJD2C of 100 to 1000 nM.

Consider `CC(C)c1cccc(N(C)c2ccc(Oc3nc(O)c4ccncc4n3)cc2)c1` [Example 93, 2-[4-(N-methyl-3-propan-2-ylanilino)phenoxy]pyrido[3,4-d]pyrimidin-4-ol], for which, on JMJD2C, the IC50 lay within 100 to 1000 nM.

On to `CC(C)c1ccc(N(CC(F)(F)F)c2ccc(Oc3nc(O)c4ccncc4n3)cc2)cc1` [Example 114, 2-{4-[(4-isopropyl-phenyl)-(2,2,2-trifluoro-ethyl)-amino]-phenoxy}-pyrido[3,4-d]pyrimidin-4-ol], for which, on JMJD2C, the half-inhibitory concentration (IC50) was in the range of 100 to 1000 nM.

In turn, `CC(C)c1ccc(N(c2ccc(Oc3nc(O)c4ccncc4n3)cc2)C2CCOCC2)cc1` [Example 118, 2-(4-((4-isopropylphenyl)(tetrahydro-2H-pyran-4-yl)amino)phenoxy)pyrido[3,4-d]pyrimidin-4-ol] gave a concentration for half-maximal inhibition (IC50) against JMJD2C of 100 to 1000 nM.
